Reference: patent publication EP4603105A1, “PHARMACEUTICAL COMPOSITION CONTAINING CYCLIC COMPOUND HAVING SELECTIVE KRAS INHIBITORY EFFECT AGAINST HRAS AND NRAS” (CHUGAI SEIYAKU KABUSHIKI KAISHA, priority 2022, dated 2024)

What was measured:
[1] = tested on: human ovarian cancer strain OV7; assay type: cell-based
Method: A test compound was dispensed into a U-bottom 384-well plate as 40 nL serially diluted dimethyl sulfoxide solutions using a liquid handler Echo (LABCYTE). As for human ovarian cancer strain OV7 (ECACC), a cell suspension was prepared so as to have 250 cells/40 µL in a DMEM/Ham's F-12 medium (Nacalai Tesque) supplemented with 5% fetal bovine serum (Sigma), 0.5 µg/mL hydrocortisone, and 10 µg/mL insulin. This cell suspension was dispensed in an amount of 40 µL per well into a plate containing the test compound, and cultured at 37°C in a 5% carbon dioxide gas incubator. Seven days later, 20 µL of CellTiter-Glo (registered trademark) (Promega) was added to each well and luminescence was measured.

[2] = tested on: human bladder cancer strain UM-UC-3; assay type: cell-based
Method: A test compound was dispensed into a U-bottom 384-well plate as 40 nL serially diluted dimethyl sulfoxide solutions using a liquid handler Echo (LABCYTE). As for human bladder cancer strain UM-UC-3 (ATCC), a cell suspension was prepared so as to have 250 cells/40 µL in an MEM medium (Nacalai Tesque) supplemented with 10% fetal bovine serum (Sigma), an MEM non-essential amino acids solution (100X), and 1 mmol/L sodium pyruvate. This cell suspension was dispensed in an amount of 40 µL per well into a plate containing the test compound, and cultured at 37°C in a 5% carbon dioxide gas incubator. Seven days later, 20 µL of CellTiter-Glo (registered trademark) (Promega) was added to each well and luminescence was measured. […]

[3] = tested on: human colorectal cancer strain GP2d; assay type: cell-based
Method: (§1) A test compound was dispensed into a U-bottom 384-well plate as 40 nL serially diluted dimethyl sulfoxide solutions using a liquid handler Echo (LABCYTE). As for human colorectal cancer strain GP2d (ECACC), a cell suspension was prepared so as to have 500 cells/40 µL in a Dulbecco's modified Eagle medium supplemented with 10% fetal bovine serum (Sigma). This cell suspension was dispensed in an amount of 40 µL per well into a plate containing the test compound, and cultured at 37°C in a 5% carbon dioxide gas incubator. Seven days later, 20 µL of CellTiter-Glo (registered trademark) (Promega) was added to each well and luminescence was measured.

[4] = target: GDP-bound NRAS wild-type protein (Homo sapiens, UniProt P01111); assay: Binding to NRAS by surface plasmon resonance (SPR), KD and KD ratio to KRAS; conditions: ratio of KD for GDP-bound NRAS wild-type protein to KD for KRAS
Sequence of GDP-bound NRAS wild-type protein (P01111 whole entry): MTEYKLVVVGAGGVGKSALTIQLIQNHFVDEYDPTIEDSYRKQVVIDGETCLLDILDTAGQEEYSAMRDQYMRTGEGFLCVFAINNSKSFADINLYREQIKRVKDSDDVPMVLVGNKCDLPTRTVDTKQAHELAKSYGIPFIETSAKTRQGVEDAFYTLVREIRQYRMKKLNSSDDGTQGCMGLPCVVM
Summary of the method: (§2)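 SPR, 30°C: Avi-biotin RAS·GDP captured via Biotin CAPture (~100–300 RU); running buffer HBS pH 7.4, 1 mM DTT, 10 mM MgCl2, 0.01% Tween 20, 10 µM GDP, 4% DMSO. Single-cycle kinetics, 100 µL/min, 75 s injections; 1:1 model → KD.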

[5] = target: GDP-bound KRAS wild-type protein (Homo sapiens, UniProt P01116); assay: Binding to KRAS by surface plasmon resonance (SPR), dissociation constant KD; conditions: Single Cycle Kinetics
Sequence of GDP-bound KRAS wild-type protein (P01116 1-188 isoform P01116-2): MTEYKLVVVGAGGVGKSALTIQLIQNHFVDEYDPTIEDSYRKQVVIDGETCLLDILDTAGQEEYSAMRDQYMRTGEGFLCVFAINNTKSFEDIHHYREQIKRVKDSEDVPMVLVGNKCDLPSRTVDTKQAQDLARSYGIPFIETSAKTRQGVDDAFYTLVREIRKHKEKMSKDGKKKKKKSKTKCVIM
Summary of the method: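 GDP-loaded biotinylated Avi-tag RAS proteins (E. coli-expressed) captured on a Biotin CAPture chip at ~100–300 RU; single-cycle kinetics at 30°C, 100 µL/min, 75 s injections of rising compound concentrations. HBS pH 7.4 running buffer with 1 mM DTT, 10 mM MgCl2, 10 µM GDP, 4% DMSO. KD from 1:1 binding fit.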

HRAS wild-type protein = HRAS wild-type protein (Homo sapiens, UniProt P01112); assay: Binding to HRAS by surface plasmon resonance (SPR), KD and KD ratio to KRAS; conditions: ratio of KD for HRAS wild-type protein to KD for KRAS
Sequence of HRAS wild-type protein (P01112 whole entry): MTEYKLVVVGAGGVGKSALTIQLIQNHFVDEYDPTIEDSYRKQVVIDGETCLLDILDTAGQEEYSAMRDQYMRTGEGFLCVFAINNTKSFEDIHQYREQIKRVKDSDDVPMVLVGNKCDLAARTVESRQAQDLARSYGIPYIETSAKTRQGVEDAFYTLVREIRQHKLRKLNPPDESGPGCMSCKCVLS
Summary of the method: as §2

[6] = tested on: human lung cancer strain NCI-H441; assay type: cell-based
Summary of the method: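 Proliferation was scored by […] measured after the reagent was added to cultures kept at 37°C in 5% carbon dioxide.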

[7] = tested on: human gastric cancer strain GSU; assay type: cell-based
Method: as §1, with “gastric” for “colorectal”, “GSU (Institute of Physical and Chemical Research),” for “GP2d (ECACC),”, “200” for “500”, “an RPMI-1640” for “a Dulbecco's modified Eagle”, “medium (Sigma)” for “medium”

[8] = tested on: human pancreatic cancer strain KP4; assay type: cell-based
Method: as §1, with “pancreatic” for “colorectal”, “KP4 (Institute of Physical and Chemical Research),” for “GP2d (ECACC),”, “DMEM/Ham's F-12” for “Dulbecco's modified Eagle”, “medium (Nacalai Tesque)” for “medium”

[9] = tested on: human gastric cancer strain SNU-1; assay type: cell-based
Method: A test compound was dispensed into a U-bottom 384-well plate as 40 nL serially diluted dimethyl sulfoxide solutions using a liquid handler Echo (LABCYTE). As for human gastric cancer strain SNU-1 (ATCC), a cell suspension was prepared so as to have 250 cells/40 µL in an RPMI-1640 medium (Sigma) supplemented with 10% fetal bovine serum (Sigma), a 2.5 g/L D-(+)-glucose solution, 10 mmol/L HEPES, and 1 mmol/L sodium pyruvate. This cell suspension was dispensed in an amount of 40 µL per well into a plate containing the test compound, and cultured at 37°C in a 5% carbon dioxide gas incubator. Seven days later, 20 µL of CellTiter-Glo (registered trademark) (Promega) was added to each well and luminescence was measured.

Row | Compound | IC50 [1] | IC50 [2] | IC50 [3] | NRAS /KRAS [4] | Kd [5] | HRAS /KRAS (HRAS wild-type protein) | IC50 [6] | IC50 [7] | IC50 [8] | IC50 [9]
1 | CCC[C@H]1C(=O)N[C@@H]([C@@H](C)CC)C(=O)N(C)CC(=O)N(C)[C@H]2C/C=C\CCN(C2=O)[C@@H](Cc2ccc(C(F)(F)F)cc2)C(=O)N(C)CC(=O)N[C@@H](CCc2cc(F)c(C(F)(F)F)c(F)c2)C(=O)N2CC3(CC3)C[C@H]2C(=O)N(C)C2(CCC2)C(=O)N(C)[C@@H](C2CCCC2)C(=O)N(C)[C@H](C(=O)N(C)C)CC(=O)N1C [PP3356] | 2.5 nM | 1.3 nM | 1.5 nM | A (a compound having 10 or more and less than 20 is denoted as A) | 0.044 nM | A (a compound having 10 or more and less than 20 is denoted as A) | 2.3 nM | 1 nM | 4.9 nM | 4 nM
2 | C#CC[C@H]1C(=O)N[C@@H]([C@@H](C)CC)C(=O)N(C)CC(=O)N(C)[C@H]2C/C=C\CCN(C2=O)[C@@H](Cc2ccc(C(F)(F)F)cc2)C(=O)N(C)CC(=O)N[C@@H](CCc2ccc(C(F)(F)F)c(Cl)c2)C(=O)N2C[C@H](OCC)C[C@H]2C(=O)N(C)C2(CCC2)C(=O)N(C)[C@@H](C2CCCC2)C(=O)N(C)[C@H](C(=O)N(C)C)CC(=O)N1C [PP3234, (2S,8S,12R,14S,20S,23S,27S,30S,36S,38Z)-8-[2-[3-chloro-4-(trifluoromethyl)phenyl]ethyl]-20-cyclopentyl-12-ethoxy-N,N,4,16,19,22,26,32,35-nonamethyl-30-[(1S)-1-methylpropyl]-3,6,9,15,18,21,25,28,31,34,42-undecaoxo-27-prop-2-ynyl-2-[[4-(trifluoromethyl)phenyl]methyl]spiro[1,4,7,10,16,19,22,26,29,32,35-undecazatricyclo[34.5.1.0^10,14]dotetracont-38-ene-17,1'-cyclobutane]-23-carboxamide] | 2.2 nM | 0.7 nM | 1.1 nM | A (a compound having 10 or more and less than 20 is denoted as A) | 0.026 nM | B (a compound having 3 or more and less than 10 is denoted as B) | 1.6 nM | 0.4 nM | 3.2 nM | 2 nM
3 | CCO[C@@H]1C[C@H]2C(=O)OC3(CCC3)C(=O)N(C)[C@@H](C3CCCC3)C(=O)N(C)[C@H](C(=O)N(C)C)CC(=O)N(C)[C@@H]([C@@H](C)OC)C(=O)N[C@@H]([C@@H](C)CC)C(=O)N(C)CC(=O)N(C)[C@H]3C/C=C\CCN(C3=O)[C@@H](Cc3ccc(C)cc3)C(=O)N(C)CC(=O)N[C@@H](CCc3ccc(C(F)(F)F)c(OC)c3)C(=O)N2C1 [PP3394, (2S,8S,12R,14S,20S,23S,27S,30S,36S,38Z)-20-cyclopentyl-12-ethoxy-27-[(1R)-1-methoxyethyl]-8-[2-[3-methoxy-4-(trifluoromethyl)phenyl]ethyl]-N,N,4,19,22,26,32,35-octamethyl-30-[(1S)-1-methylpropyl]-3,6,9,15,18,21,25,28,31,34,42-undecaoxo-2-(p-tolylmethyl)spiro[16-oxa-1,4,7,10,19,22,26,29,32,35-decazatricyclo[34.5.1.0^10,14]dotetracont-38-ene-17,1'-cyclobutane]-23-carboxamide] | 4.7 nM | 1.8 nM | 2.5 nM | A (a compound having 10 or more and less than 20 is denoted as A) | 0.1 nM | A (a compound having 10 or more and less than 20 is denoted as A) | 4.1 nM | 0.4 nM | 3.9 nM | 3.9 nM
